Experimental data taken from publication PMC4890880 (ACS infectious diseases, 2016).
Read-outs that look alike come from different tables or passages of the source.

Tests used:
[1] = test system: Plasmodium berghei (Pb-Luc) exoerythrocytic-stage parasites; conditions: for normalized signal at concentration 10 / normalized signal at concentration 0.000508053 / normalized signal at concentration 0.00152416 / normalized signal at concentration 0.00457247 / normalized signal at concentration 0.0137174 / normalized signal at concentration 0.0411523 / normalized signal at concentration 0.123457 / normalized signal at concentration 0.37037 / normalized signal at concentration 1.11111 / normalized signal at concentration 3.33333 / normalized signal at 0.000508053 (first series) / normalized signal at 0.000508053 (second series) / normalized signal at 0.00152416 (first series) / normalized signal at 0.00152416 (second series) / normalized signal at 0.00457247 (first series) / normalized signal at 0.00457247 (second series) / normalized signal at 0.0137174 (first series) / normalized signal at 0.0137174 (second series) / normalized signal at 0.0411523 (first series) / normalized signal at 0.0411523 (second series) / normalized signal at 0.123457 (first series) / normalized signal at 0.123457 (second series) / normalized signal at 0.37037 (first series) / normalized signal at 0.37037 (second series) / normalized signal at 1.11111 (first series) / normalized signal at 1.11111 (second series) / normalized signal at 3.33333 (first series) / normalized signal at 3.33333 (second series) / normalized signal at 10 (first series) / normalized signal at 10 (second series): fraction of control; for IC50: read-out: PbLuc_IC50; for normalized signal at 0.000508053 (first series): concentration 0.000508053, first replicate series; for normalized signal at 0.000508053 (second series): concentration 0.000508053, second replicate series; for normalized signal at 0.00152416 (first series): concentration 0.00152416, first replicate series; for normalized signal at 0.00152416 (second series): concentration 0.00152416, second replicate series; for normalized signal at 0.00457247 (first series): concentration 0.00457247, first replicate series; for normalized signal at 0.00457247 (second series): concentration 0.00457247, second replicate series; for normalized signal at 0.0137174 (first series): concentration 0.0137174, first replicate series; for normalized signal at 0.0137174 (second series): concentration 0.0137174, second replicate series; for normalized signal at 0.0411523 (first series): concentration 0.0411523, first replicate series; for normalized signal at 0.0411523 (second series): concentration 0.0411523, second replicate series; for normalized signal at 0.123457 (first series): concentration 0.123457, first replicate series; for normalized signal at 0.123457 (second series): concentration 0.123457, second replicate series; for normalized signal at 0.37037 (first series): concentration 0.37037, first replicate series; for normalized signal at 0.37037 (second series): concentration 0.37037, second replicate series; for normalized signal at 1.11111 (first series): concentration 1.11111, first replicate series; for normalized signal at 1.11111 (second series): concentration 1.11111, second replicate series; for normalized signal at 3.33333 (first series): concentration 3.33333, first replicate series; for normalized signal at 3.33333 (second series): concentration 3.33333, second replicate series; for normalized signal at 10 (first series): concentration 10, first replicate series; for normalized signal at 10 (second series): concentration 10, second replicate series
[2] = test system: HepG2-A16-CD81EGFP cells; conditions: for IC50: read-out: Tox_IC50, HepG2 cytotoxicity
[3] = sheet 2nd round, maximal inhibition in dose response
[4] = 2nd round, maximal inhibition in dose series
[5] = 2nd round, Broad DOS compounds, unit not printed (dose series head 10 to 0.000508053)

COc1ccc(NC(=O)N(C)C[C@H]2Oc3ccc(NC(=O)CCN4CCOCC4)cc3C(=O)N([C@H](C)CO)C[C@@H]2C)cc1 [BRD-K36853881-001-02-5]
normalized signal at concentration 10 ([1]; first series of dose-response columns): 0.82 | normalized signal at concentration 0.000508053 ([1]; first series): 0.84 | normalized signal at concentration 0.00152416 ([1]; first series): 0.86 | normalized signal at concentration 0.00457247 ([1]; first series): 0.85 | normalized signal at concentration 0.0137174 ([1]; first series): 0.75 | normalized signal at concentration 0.0411523 ([1]; first series): 0.91 | normalized signal at concentration 0.123457 ([1]; first series): 0.88 | normalized signal at concentration 0.37037 ([1]; first series): 0.86 | normalized signal at concentration 1.11111 ([1]; first series): 0.92 | normalized signal at concentration 3.33333 ([1]; first series): 0.69 | IC50 ([1]; sheet 2nd round, Broad compounds, dose response): > 10 µM | normalized signal at concentration 10 ([1]; second series of dose-response columns): 0.77 | normalized signal at concentration 0.000508053 ([1]; second series): 1.01 | normalized signal at concentration 0.00152416 ([1]; second series): 0.81 | normalized signal at concentration 0.00457247 ([1]; second series): 0.82 | normalized signal at concentration 0.0137174 ([1]; second series): 0.71 | normalized signal at concentration 0.0411523 ([1]; second series): 0.92 | normalized signal at concentration 0.123457 ([1]; second series): 0.81 | normalized signal at concentration 0.37037 ([1]; second series): 0.84 | normalized signal at concentration 1.11111 ([1]; second series): 0.84 | normalized signal at concentration 3.33333 ([1]; second series): 0.84 | PbLuc_max_inhibition (%) [1, 3]: 31% | IC50 ([2]; sheet 2nd round): > 10 µM | Tox_max_inhibition (%) [2, 3]: 9%

O=C(C[C@@H]1CC[C@@H]2[C@H](COC[C@@H](O)CN2C(=O)c2ccncc2)O1)Nc1ccc(-c2ccccc2)cc1 [BRD-K17686828-001-01-0]
PbLuc_max_inhibition (%) [1, 4]: 43% | normalized signal at 0.000508053 (first series) [1]: 1.033 | normalized signal at 0.000508053 (second series) [1]: 0.8541 | normalized signal at 0.00152416 (first series) [1]: 0.9014 | normalized signal at 0.00152416 (second series) [1]: 0.8307 | normalized signal at 0.00457247 (first series) [1]: 0.9821 | normalized signal at 0.00457247 (second series) [1]: 0.9422 | normalized signal at 0.0137174 (first series) [1]: 1.011 | normalized signal at 0.0137174 (second series) [1]: 0.8936 | normalized signal at 0.0411523 (first series) [1]: 0.9016 | normalized signal at 0.0411523 (second series) [1]: 0.7632 | normalized signal at 0.123457 (first series) [1]: 1.067 | normalized signal at 0.123457 (second series) [1]: 0.5683 | normalized signal at 0.37037 (first series) [1]: 0.7959 | normalized signal at 0.37037 (second series) [1]: 0.6689 | normalized signal at 1.11111 (first series) [1]: 0.9118 | normalized signal at 1.11111 (second series) [1]: 0.6624 | normalized signal at 3.33333 (first series) [1]: 0.9028 | normalized signal at 3.33333 (second series) [1]: 0.8412 | normalized signal at 10 (first series) [1]: 0.8222 | normalized signal at 10 (second series) [1]: 0.7063 | IC50 [1, 5]: > 10 µM | Tox_max_inhibition (%) [2, 4]: 9% | IC50 ([2]; 2nd round, unit inferred): > 10 µM

COc1ccc(NC(=O)N(C)C[C@H]2Oc3c(NC(=O)CCCCCC(=O)Nc4ccccc4N)cccc3C(=O)N([C@H](C)CO)C[C@H]2C)cc1 [BRD-K75018854-001-01-2]
PbLuc_max_inhibition (%) [1, 4]: 27% | normalized signal at 0.000508053 (first series) [1]: 1.05 | normalized signal at 0.000508053 (second series) [1]: 0.8619 | normalized signal at 0.00152416 (first series) [1]: 0.9022 | normalized signal at 0.00152416 (second series) [1]: 0.7297 | normalized signal at 0.00457247 (first series) [1]: 1.1676 | normalized signal at 0.00457247 (second series) [1]: 0.8627 | normalized signal at 0.0137174 (first series) [1]: 0.9808 | normalized signal at 0.0137174 (second series) [1]: 0.929 | normalized signal at 0.0411523 (first series) [1]: 1.1704 | normalized signal at 0.0411523 (second series) [1]: 0.8231 | normalized signal at 0.123457 (first series) [1]: 1.053 | normalized signal at 0.123457 (second series) [1]: 1.0322 | normalized signal at 0.37037 (first series) [1]: 0.9438 | normalized signal at 0.37037 (second series) [1]: 0.8176 | normalized signal at 1.11111 (first series) [1]: 0.9278 | normalized signal at 1.11111 (second series) [1]: 0.8826 | normalized signal at 3.33333 (first series) [1]: 1.001 | normalized signal at 3.33333 (second series) [1]: 1.022 | normalized signal at 10 (first series) [1]: 0.9917 | normalized signal at 10 (second series) [1]: 1.205 | IC50 [1, 5]: > 10 µM | Tox_max_inhibition (%) [2, 4]: 8% | IC50 ([2]; 2nd round, unit inferred): > 10 µM

O=C(NCc1ccc2c(c1)OCO2)[C@@H]1[C@@H](CO)[C@@H]2Cn3c(cccc3=O)[C@H]1N2Cc1cncnc1 [BRD-K31004267-001-01-6]
normalised signal at concentration 0.000508053 (first series) ([1]; concentration 0.000508053, first series): 0.9455 | normalised signal at concentration 0.000508053 (second series) ([1]; concentration 0.000508053, second series): 0.7294 | normalised signal at concentration 0.00152416 (first series) ([1]; concentration 0.00152416, first series): 0.9922 | normalised signal at concentration 0.00152416 (second series) ([1]; concentration 0.00152416, second series): 1.083 | normalised signal at concentration 0.00457247 (first series) ([1]; concentration 0.00457247, first series): 0.9907 | normalised signal at concentration 0.00457247 (second series) ([1]; concentration 0.00457247, second series): 0.8279 | normalised signal at concentration 0.0137174 (first series) ([1]; concentration 0.0137174, first series): 0.9424 | normalised signal at concentration 0.0137174 (second series) ([1]; concentration 0.0137174, second series): 0.9304 | normalised signal at concentration 0.0411523 (first series) ([1]; concentration 0.0411523, first series): 0.8128 | normalised signal at concentration 0.0411523 (second series) ([1]; concentration 0.0411523, second series): 1.152 | normalised signal at concentration 0.123457 (first series) ([1]; concentration 0.123457, first series): 0.8401 | normalised signal at concentration 0.123457 (second series) ([1]; concentration 0.123457, second series): 1.066 | normalised signal at concentration 0.37037 (first series) ([1]; concentration 0.37037, first series): 1.129 | normalised signal at concentration 0.37037 (second series) ([1]; concentration 0.37037, second series): 0.8899 | normalised signal at concentration 1.11111 (first series) ([1]; concentration 1.11111, first series): 0.9661 | normalised signal at concentration 1.11111 (second series) ([1]; concentration 1.11111, second series): 0.8895 | normalised signal at concentration 3.33333 (first series) ([1]; concentration 3.33333, first series): 0.7673 | normalised signal at concentration 3.33333 (second series) ([1]; concentration 3.33333, second series): 0.9284 | normalised signal at concentration 10 (first series) ([1]; concentration 10, first series of dose columns): 1.039 | normalised signal at concentration 10 (second series) ([1]; concentration 10, second series of dose columns): 0.9564 | IC50 ([1]; sheet "2nd round", Broad compounds, dose response top concentration 10): > 10 µM | PbLuc_max_inhibition (%) ([1]; sheet "2nd round"): 27% | IC50 ([2]; sheet "2nd round"): > 10 µM | Tox_max_inhibition (%) ([2]; sheet "2nd round"): 14%

C[C@@H]1CN([C@H](C)CO)C(=O)c2ccccc2-c2ccccc2CO[C@H]1CN(C)C(=O)[C@H](Cc1ccccc1)N(C)C [BRD-K75961033-001-01-7]
PbLuc_max_inhibition (%) [1, 4]: 45% | normalized signal at 0.000508053 (first series) [1]: 1.06 | normalized signal at 0.000508053 (second series) [1]: 0.8091 | normalized signal at 0.00152416 (first series) [1]: 0.9571 | normalized signal at 0.00152416 (second series) [1]: 0.6896 | normalized signal at 0.00457247 (first series) [1]: 0.9675 | normalized signal at 0.00457247 (second series) [1]: 0.699 | normalized signal at 0.0137174 (first series) [1]: 1.117 | normalized signal at 0.0137174 (second series) [1]: 0.795 | normalized signal at 0.0411523 (first series) [1]: 0.9735 | normalized signal at 0.0411523 (second series) [1]: 0.8267 | normalized signal at 0.123457 (first series) [1]: 0.9249 | normalized signal at 0.123457 (second series) [1]: 0.6648 | normalized signal at 0.37037 (first series) [1]: 0.9974 | normalized signal at 0.37037 (second series) [1]: 0.9501 | normalized signal at 1.11111 (first series) [1]: 1.014 | normalized signal at 1.11111 (second series) [1]: 0.8135 | normalized signal at 3.33333 (first series) [1]: 0.9327 | normalized signal at 3.33333 (second series) [1]: 0.5506 | normalized signal at 10 (first series) [1]: 0.7489 | normalized signal at 10 (second series) [1]: 0.6892 | IC50 [1, 5]: > 10 µM | Tox_max_inhibition (%) [2, 4]: 5.71% | IC50 ([2]; 2nd round, unit inferred): > 10 µM
